{"source": "patent US12059429B2", "about": "“Hornerin: a novel non-VEGF mediated angiogenic protein expressed in both human and mouse angiogenic endothelial cells and human pancreatic cancer cells” (University of Virginia Patent Foundation, priority 2018, dated 2024)", "key": {"tumor vascularity": {"test_system": "tumor vascularity", "assay": "DCE-MRI and Ktrans measurement of L3.6pl tumors", "assay_type": "in vivo, mouse", "protocol": "To assess the in vivo function of tumor vascularity, DCE-MRI was performed on a 7.0 T Clinscan small animal imaging system (Bruker, Ettlingen, Germany) using a 30 mm inner-diameter birdcage radiofrequency coil. Mice (N=7) were imaged prior to treating tumors with Hrnr and Scr siRNA and again 6 days after treatment. Mice treated with the VEGFR inhibitor AV-951 (N=5) were image pre-siRNA treatment and 6 days posttreatment. Mice were anesthetized with 1.25% isoflurane anesthesia, which was maintained during imaging. Respiration and ECG were monitored during imaging using an MRI-compatible system (SA Instruments, Stony Brook, NY, USA). An indwelling tail vein catheter was established for administration of the gadolinium contrast agent Gd-DTPA, which is required in DCE imaging. Mice were placed supine in the imaging system, and body temperature was maintained at 36° C.±1° C. using circulating, temperature controlled water. Tumors were localized using a spin-echo imaging sequence, and an imaging plane that transected both tumors was chosen for DCE imaging.\nA dual-Gd-bolus DCE-MRI acquisition strategy (Christian et al., 2004) was employed, which uses a low dose of contrast agent to accurately acquire the undistorted Gd concentration vs. time curve in the blood pool and a higher dose of contrast agent to acquire the Gd concentration vs. time curve in the tumor with high signal-to-noise ratio, since Gd-DTPA is known to have signal saturation effects at high doses in the blood pool (Christian et al., 2004). […]"}, "L3.6pl PDAC cells": {"test_system": "L3.6pl PDAC cells", "assay": "Subcutaneous L3.6pl PDAC xenograft tumor volume", "assay_type": "in vivo, mouse", "protocol": "A tumor sample size of four was determined by power analysis based on prior tumor xenograft studies. For our 80% power analysis, the difference between means was 200 mm^3, standard deviation was 100 mm^3, and P-value<0.05 (P<0.05). Tumors were measured at least twice weekly until their volume was >1000 mm^3, at which point animals were euthanized. Tumor size data were collected from each tumor, with the exception of one tumor in the combination treatment experiment that was identified with 90% confidence via Grubb's Outlier Test. The following number of mice in each treatment cohort was evaluated for tumor outgrowth: (Scr siRNA/ctrl., N=15; Hrnr siRNA/ctrl., N=14; Scr siRNA/AV-951, N=8; Hrnr siRNA/AV-951, N=8).\nFor tumor implantation, L3.6pl cells were grown under normal culture conditions for 72 hours prior to being trypsinized and enumerated. The cells were suspended in aliquots of 500,000 cells/50 μL Hanks Balanced Salt Solution (HBSS; Corning, Manassas, VA, USA) and 50 μL of Matrigel (BD Biosciences, San Jose, CA, USA) was added to each aliquot of cells prior to implantation. The cell-Matrigel slurry was injected subcutaneously into nu/nu mice on the flanks or orthotopically into the pancreas (Seaman et al., 2011). The injection site for subcutaneous tumors was monitored daily for growth and tumor volume was calculated form caliper measurements using the formula (width^2×length)/2.\nThe VEGFR inhibitor AV-951 (Selleck Chemicals, Houston, TX, USA) was suspended in 0.5% methocel+0.5% Tween-20 in HBSS to increase viscosity and 50 μL of 1.0 mg/kg AV-951 or VC solution was administered once daily by oral gavage (22-gauge gavage needle (Kent Scientific, Torrington, CT, USA) connected to a 1 mL syringe). […] To prepare Hrnr siRNA and Silencer Select Negative Control #1 Scr siRNA (Invitrogen; catalog number 4390844) for injection, 10 μg of hornerin or control siRNA were combined with in vivo-jetPEI transfection reagent (Polyplus, France) in solution with 5% glucose per Polyplus instructions (total volume 50 μL). After a 30 minutes incubation, the siRNA solutions were injected slowly into the center of the tumor. A second independent hornerin knockdown experiment was conducted using a pooled set of three unique mouse Hrnr siRNA duplexes (5′-[…]-3′ (SEQ ID NO: 50); 5 ‘-[…]-3’ (SEQ ID NO: 51); 5 ‘-[…]-3’ (SEQ ID NO: 52)) and Scr siRNA (Origene, Rockville, MD, USA). The reagent preparation and injection protocol were similar to that described above."}, "murine Hrnr": {"test_system": "murine Hrnr", "assay": "In vitro siRNA-mediated hornerin knockdown in COCA cells (immunoblot)", "assay_type": "cell-based", "conditions": "COCA mouse keratinocytes, densitometry", "protocol": "For in vitro siRNA-mediated hornerin knockdown, COCA cells and human keratinocytes were plated at a density of 0.1×10^6 cells/well in a six-well cluster plate. The cells were treated the following day with Scr siRNA or Hrnr siRNA (Invitrogen; siRNA sequences identical to those utilized in tumor studies) following an established protocol (see Rachow et al., 2013). Briefly, 100 μL of 10 μM siRNA and 12.5 μL of Lipofectamine 2000 (LF2000; Invitrogen) were added to separate 625 μL OptiMEM (Thermo Fisher Scientific) aliquots. After 5 minutes at RT, the solutions were mixed and incubated for an additional 30 minutes, upon which 5 ml of keratinocyte media were added. The cells were incubated overnight in 3 ml of the siRNA/LF2000/media mixture, replenished the following morning with media containing 2 mM CaCl2) to induce differentiation, and lysed in RIPA buffer 8 hours post-media change. Lysate preparations were subjected to immunoblot using the primary antibodies anti-human hornerin (Abcam; 1:1000), anti-mouse hornerin (Santa Cruz Biotechnology, Dallas, TX, USA, sc164605; 1:200), or anti-beta actin (Cell Signaling; 1:4000), and respective secondary antibodies anti-goat HRP (R&D Systems; 1:10,000), and anti-mouse HRP (R&D Systems; 1:10,000). Uncropped hornerin immunoblots are represented in FIGS. 6A and 6B."}}}
{"substance": "5′-GCAUGGAUCUUGUUGCGGUTT-3′ [Hrnr siRNA]", "values": [{"measurement": "tumor concentration of Gd-DTPA", "setting": "tumor vascularity; after 6 days of siRNA injection every other day, vs Scr siRNA", "result": "two-fold reduced"}, {"measurement": "reduction in Ktrans", "setting": "tumor vascularity; after 6 days of siRNA injections, vs control", "result": 2.4, "unit": "fold"}, {"measurement": "tumors smaller compared to Scr siRNA-injected tumors", "setting": "L3.6pl PDAC cells; intratumoral injection every other day from day 7, volume at day 13 post implantation", "result": 2.5, "unit": "fold"}, {"measurement": "reduction in tumor volume (discussion summary)", "setting": "L3.6pl PDAC cells; monotherapy or combined therapies", "result": "two-fold"}, {"measurement": "reduction in hornerin expression (knockdown) relative to Scr siRNA", "setting": "murine Hrnr", "result": 60, "unit": "%"}]}
